In assay [1] the test system is P. falciparum chloroquine sensitive (D6, Sierra Leone) strain. In words: In vitro antimalarial assay (SYBR green), D6 strain. Format: cell-based, Plasmodium falciparum.
Assay [2] deals with P. falciparum chloroquine resistant (W2, IndoChina) strain. As to the kind of experiment: In vitro antimalarial assay (SYBR green), W2 strain. Format: cell-based, Plasmodium falciparum.
A further assay deals with Human erythrocytes. In words: ROS assay in DCFDA loaded erythrocytes. The format is cell-based.
Assay [3] relates to P. falciparum CQ-sensitive (D6) and CQ-resistant (W2) strains. In words: In vitro antimalarial assay, statements covering both strains. Format: cell-based, Plasmodium falciparum. The note with it: for IC50: Plasmodium falciparum, strain not given, read-out: antimalarial activity IC50 (abstract).
A further assay relates to PfTrxR. The note with it: read-out: Pf TrxR IC50; cited from earlier work.
A further assay deals with 3T3 cells. In words: Cytotoxicity assay (AlamarBlue). The format is cell-based. A general note: Alamar Blue is a resazurin reagent that responds to reducing activity.
The subject of the next assay is hTrxR. The note with it: read-out: Exptl. IC50, hTrxR; cited from earlier work.
Where [4] appears, read: Plasmodium falciparum, D6, read-out: Pf (D6) CQ sensitive IC50.
Where [5] appears, read: Plasmodium falciparum, W2, read-out: Pf (W2) CQ resistance IC50.
The mark [6] stands for this setting: against the two strains of P. falciparum.
Where [7] appears, read: Plasmodium falciparum, D6 clone, mean ± S.D. of triplicate observations, read-out: Pf (D6) CQ sensitive IC50.
Where [8] appears, read: test compounds 50 μM, DCFDA fluorescence monitored for 120 min.
The mark [9] stands for this setting: Mus musculus, NIH3T3, 3T3 cells, AlamarBlue, NC: no cytotoxicity up to concentration much higher than the antiplasmodial concentration, read-out: 3T3 IC50.
Where [10] appears, read: Plasmodium falciparum, W2, W2 clone, mean ± S.D. of triplicate observations, read-out: Pf (W2) CQ resistance IC50.

Where two headings read alike, the source gives them in different places.

In the case of `CCN(CC)CCCC(C)Nc1ccnc2cc(Cl)ccc12` (centres unmarked) [CQ, chloroquine], the IC50 was determined as 0.055 ± 0.006 µM in assay [1] (setting [4]) and 0.44 ± 0.045 µM in assay [2] (setting [5]).

On to `CN(C)CCC(=O)c1ccccc1` [3-DAP, 3-dimethylaminopropiophenone], for which the IC50 was more than 100 µM in assay [1] (setting [4]); 15.4 µM in the assay with PfTrxR; more than 100 µM with 3T3 cells (Mus musculus, NIH3T3, read-out: 3T3 IC50); more than 100 µM in assay [2] (setting [5]). The “intraerythrocytic formation of ROS (oxidative stress)” value (from here on “intraerythrocytic formation of ROS”) in the assay with Human erythrocytes is listed as “did not cause the production of ROS”. For the same compound, the “antimalarial activity in words” value in assay [3] (setting [6]) is “inactive”.

For the compound `O=C1C=CC(=O)c2ccccc21` [1,4-NQ, 1,4-napthoquinone], the IC50 in assay [1] (setting [7]) is 8.9 ± 2.3 µM; in assay [3] it was less than 20 µM; in the assay on PfTrxR, 0.75 µM; with 3T3 cells (setting [9]), 38.5 ± 0.76 µM; in assay [2] (setting [10]) it was less than 20 µM; in assay [2] (W2 clone, mean ± S.D. of triplicate observations, read-out: Pf (W2) CQ resistance IC50) it was 16.7 ± 3.7 µM. Also, the “intraerythrocytic formation of ROS” value in the assay with Human erythrocytes (setting [8]) is “significant increase”. Besides, the “antimalarial activity in words” value in assay [3] (setting [6]) is on record as “most active”.

`CC1=CC(=O)c2ccccc2C1=O` [MD, menadione]: the IC50 in assay [1] (setting [7]) was 18.5 ± 1.9 µM; in assay [3] it was less than 20 µM; in the assay on PfTrxR, 1.6 µM; with 3T3 cells (setting [9]) it was 70.5 ± 3.69 µM; in assay [2] (setting [10]), 28.3 ± 5.6 µM. The “intraerythrocytic formation of ROS” value in the assay with Human erythrocytes (setting [8]) is “significant increase”. In assay [3] (setting [6]), the “antimalarial activity in words” value is “moderately active”.

In the case of 4-nitrobenzothiadiazole [4-NBT], the concentration for half-maximal inhibition (IC50) in assay [1] (read-out: Pf (D6) CQ sensitive IC50) is 8.3 ± 2.1 µM; in the assay on hTrxR it was 50 µM; with PfTrxR, 2 µM; with 3T3 cells (read-out: 3T3 IC50), 80 ± 1.15 µM. Besides, the “intraerythrocytic formation of ROS” value with Human erythrocytes was “significant increase”. Also, the “antimalarial activity in words” value in assay [3] is recorded as “most active”.

In general, IC50 refers to the midpoint of a concentration-inhibition curve.

(Values after article PMC3828397, “Characterization of PfTrxR inhibitors using antimalarial assays and in silico techniques” (Chemistry Central Journal, 2013).)
